Assay results reported in the supplement of paper PMC10307832.

What was measured:
Test in all cases: relative viability (nuclei count vs DMSO), 5 days (fraction); higher = more cells survive
IDH-C35 + Tozasertib = compound: Cc1ccccc1C(C(=O)NC1CCCCC1)N(C(=O)Cn1ccnc1C)c1cccc(F)c1 [IDH-C35] + Cc1cc(Nc2cc(N3CCN(C)CC3)nc(Sc3ccc(NC(=O)C4CC4)cc3)n2)n[nH]1 [Tozasertib] (partner 0.1 µM)
How it was run: (§1)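 Nuclei were stained with Hoechst during a one-step fixation (final 0.05% Triton X-100, 1% formaldehyde, 1 ug/ml Hoechst) carried out 5 days after dosing, then counted on 4× images. The cells, lung cancer lines in 1536-well plates, had been dosed by pin tool the day after seeding with one drug alone or a fixed anchor-drug dose plus five library-drug doses (not always all listed) in √10 steps. Relative viability is the nuclei count in treated wells divided by that in vehicle wells, and each value is the median of duplicate plates.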

IDH-C35 + Olaparib = compound: Cc1ccccc1C(C(=O)NC1CCCCC1)N(C(=O)Cn1ccnc1C)c1cccc(F)c1 [IDH-C35] + O=C(c1cc(Cc2n[nH]c(=O)c3ccccc23)ccc1F)N1CCN(C(=O)C2CC2)CC1 [Olaparib] (partner 8 µM)
How it was run: as §1

IDH-C35 + Luminespib = compound: Cc1ccccc1C(C(=O)NC1CCCCC1)N(C(=O)Cn1ccnc1C)c1cccc(F)c1 [IDH-C35] + CCNC(=O)c1noc(-c2cc(C(C)C)c(O)cc2O)c1-c1ccc(CN2CCOCC2)cc1 [Luminespib] (partner 0.01 µM)
How it was run: as §1

[1] = compound: CC1=C(C(=NN1)C)CC2=C(C3=C(S2)N(C(=O)N(C3=O)C)CC(C)C)C(=O)N4C[C@@H](CO4)O + O=C(CCCCCCC(=O)Nc1ccccc1)NO [Vorinostat] (partner 1 µM)
How it was run: as §1

Cell Line | relative viability (IDH-C35 + Tozasertib; first compound 0.08 µM) | relative viability (IDH-C35 + Tozasertib; first compound 0.253 µM) | relative viability (IDH-C35 + Tozasertib; first compound 0.8 µM) | relative viability (IDH-C35 + Tozasertib; first compound 2.53 µM) | relative viability (IDH-C35 + Tozasertib; first compound 8 µM) | relative viability (IDH-C35 + Olaparib; first compound 0.08 µM) | relative viability (IDH-C35 + Olaparib; first compound 0.253 µM) | relative viability (IDH-C35 + Olaparib; first compound 0.8 µM) | relative viability (IDH-C35 + Olaparib; first compound 2.53 µM) | relative viability (IDH-C35 + Olaparib; first compound 8 µM) | relative viability (IDH-C35 + Luminespib; first compound 0.08 µM) | relative viability (IDH-C35 + Luminespib; first compound 0.253 µM) | relative viability (IDH-C35 + Luminespib; first compound 0.8 µM) | relative viability (IDH-C35 + Luminespib; first compound 2.53 µM) | relative viability (IDH-C35 + Luminespib; first compound 8 µM) | relative viability ([1]; first compound 0.0025 µM) | relative viability ([1]; first compound 0.007906 µM) | relative viability ([1]; first compound 0.025 µM) | relative viability ([1]; first compound 0.07906 µM) | relative viability ([1]; first compound 0.25 µM)
NCI-H1437 | 0.411 | 0.443 | 0.405 | 0.413 | 0.366 | 0.61 | 0.649 | 0.609 | 0.619 | 0.602 | 1.08 | 1.04 | 1.06 | 1.06 | 1.1 | 0.796 | 0.882 | 0.833 | 0.868 | 0.906
NCI-H2342 | 0.482 | 0.54 | 0.483 | 0.494 | 0.442 | 0.435 | 0.49 | 0.41 | 0.467 | 0.377 | 0.818 | 0.617 | 0.803 | 0.631 | 0.7 | 0.611 | 0.766 | 0.709 | 0.656 | 0.644
ChaGo-K-1 | 0.22 | 0.231 | 0.221 | 0.258 | 0.203 | 0.432 | 0.432 | 0.438 | 0.452 | 0.42 | 0.733 | 0.625 | 0.623 | 0.697 | 0.67 | 0.73 | 0.811 | 0.755 | 0.725 | 0.787
NCI-H650 | 0.669 | 0.765 | 0.768 | – | 0.698 | 0.334 | 0.393 | 0.366 | – | 0.376 | 0.783 | 0.766 | 0.79 | – | 0.799 | 0.549 | 0.516 | 0.393 | 0.35 | 0.545
COR-L23 | 0.253 | 0.174 | 0.263 | 0.195 | 0.158 | 0.332 | 0.391 | 0.317 | 0.31 | 0.349 | 0.789 | 0.656 | 0.664 | 0.641 | 0.679 | 0.499 | 0.378 | 0.37 | 0.422 | 0.484
COR-L 105 | 0.351 | 0.313 | 0.386 | 0.383 | 0.337 | 0.606 | 0.681 | 0.713 | 0.614 | 0.714 | 0.722 | 0.951 | 0.715 | 0.819 | 0.742 | 0.89 | 0.918 | 0.374 | 0.86 | 0.744
LK-2 | 0.157 | 0.197 | 0.178 | 0.184 | 0.203 | 0.842 | 0.772 | 0.575 | 0.701 | 0.73 | 0.173 | 0.177 | 0.205 | 0.176 | 0.184 | 0.342 | 0.272 | 0.208 | 0.266 | 0.301
201T | 0.927 | 0.914 | 0.893 | 0.928 | 0.828 | 0.762 | 0.824 | 0.799 | 0.81 | 0.841 | 1.05 | 1.07 | 1.02 | 1.04 | 1.01 | 0.979 | 1.02 | 0.951 | 0.952 | 0.973
HCC-44 | 1.06 | 0.906 | 1 | 0.903 | 0.96 | 0.987 | 0.927 | 0.988 | 0.964 | 0.923 | 1.06 | 1.06 | 0.986 | 1.04 | 1.05 | 1.08 | 1.12 | 1.03 | 1.05 | 1.18
NCI-H596 | 1.01 | 0.866 | 0.937 | – | 0.788 | 0.591 | 0.653 | 0.773 | 0.751 | 0.785 | 1.04 | 0.974 | 1.22 | – | 0.97 | 0.783 | 0.652 | 0.625 | 0.697 | 0.479
H3255 | 0.59 | 0.6 | 0.522 | 0.511 | 0.703 | 0.554 | 0.576 | 0.579 | 0.63 | 0.553 | 0.845 | 0.998 | 0.734 | 1.03 | 0.882 | 0.969 | 0.716 | 0.821 | 0.844 | 0.854
NCI-H647 | 0.29 | 0.244 | 0.21 | 0.261 | 0.284 | 0.453 | 0.516 | 0.435 | 0.586 | 0.508 | 0.146 | 0.256 | 0.357 | 0.241 | 0.126 | 0.564 | 0.744 | 0.473 | 0.617 | 0.606
NCI-H2023 | 0.352 | 0.343 | 0.355 | 0.297 | 0.248 | 0.513 | 0.455 | 0.503 | 0.474 | 0.446 | 0.617 | 0.769 | 0.854 | 0.722 | 0.506 | 0.621 | 0.797 | 0.645 | 0.545 | 0.636
NCI-H23 | 0.325 | 0.399 | 0.414 | 0.313 | 0.406 | 0.306 | 0.329 | 0.33 | 0.321 | 0.381 | 0.207 | 0.224 | 0.201 | 0.202 | 0.227 | 0.76 | 0.627 | 0.638 | 0.587 | 0.737
NCI-H1944 | 0.249 | 0.248 | 0.246 | 0.253 | 0.265 | 0.402 | 0.429 | 0.451 | 0.391 | 0.407 | 0.79 | 0.715 | 0.656 | 0.681 | 0.763 | 0.6 | 0.704 | 0.576 | 0.522 | 0.594
NCI-H1793 | 0.353 | 0.415 | 0.329 | – | 0.296 | 0.934 | 0.903 | 0.932 | 0.862 | 0.859 | 0.159 | 0.215 | 0.255 | – | 0.184 | 0.72 | 0.959 | 0.757 | 0.733 | 0.747
